The values that follow are results of earlier work, collected in patent US20110287113A1, “TREATMENT OF PSORIASIS” (Insense Limited, priority 2009, published 2011).

The conditions of data set [1]: under normal conditions.
For data set [2] the following is noted: under normal conditions. This is another data set of the same source.
The conditions of data set [3]: at 25° C.

Regarding `[N]=O` [NO, nitric oxide], the “maximum solubility in water” value in data set [1] was “approximately 1.7 mM”.
`N[C@@H](CSN=O)C(=O)O` [S-nitrosocysteine]: the “time to total (100%) decomposition” value in data set [2] is on record as “within minutes”.
As to `N[C@@H](CCC(=O)N[C@@H](CSN=O)C(=O)NCC(=O)O)C(=O)O` [S-nitrosoglutathione], the “time to total (100%) decomposition” value in data set [2] is “hours/days”.
In general, pKa refers to the pH at which an ionisable group is half protonated. With `O=NO` [nitrite], the pKa in data set [3] is given as 3.4.
